# Source: patent US8541460B2, “PDK-1/Akt signaling inhibitors” (The Ohio State University, priority 2003, dated 2013)
# Legend:
# immunoprecipitated Akt = assay: Direct inhibition of immunoprecipitated Akt kinase activity; type: biochemical, human
# RPMI-8226 = assay: NCI DTP cell line screen (SRB), Leukemia; type: cell-based, human; conditions: for TGI: in M (unit assumed)
# Description: (§1) Screening of compounds 70 and 71 against several cancer cell lines The human tumor cell lines of the cancer screening panel are grown in RPMI 1640 medium containing 5% fetal bovine serum and 2 mM L-glutamine. For a typical screening experiment, cells are inoculated into 96 well microtiter plates in 100 μL at plating densities ranging from 5,000 to 40,000 cells/well depending on the doubling time of individual cell lines. After cell inoculation, the microtiter plates are incubated at 37° C., 5% CO2, 95% air and 100% relative humidity for 24 h prior to addition of experimental drugs.
# (§2) After 24 h, two plates of each cell line are fixed in situ with TCA, to represent a measurement of the cell population for each cell line at the time of drug addition (Tz). Experimental drugs are solubilized in dimethyl sulfoxide at 400-fold the desired final maximum test concentration and stored frozen prior to use. At the time of drug addition, an aliquot of frozen concentrate is thawed and diluted to twice the desired final maximum test concentration with complete medium containing 50 μg/ml gentamicin. Additional four, 10-fold or ½ log serial dilutions are made to provide a total of five drug concentrations plus control. Aliquots of 100 μl of these different drug dilutions are added to the appropriate microtiter wells already containing 100 μl of medium, resulting in the required final drug concentrations.
# (§3) Following drug addition, the plates are incubated for an additional 48 h at 37° C., 5% CO2, 95% air, and 100% relative humidity. For adherent cells, the assay is terminated by the addition of cold TCA. Cells are fixed in situ by the gentle addition of 50 μl of cold 50% (w/v) TCA (final concentration, 10% TCA) and incubated for 60 minutes at 4° C. The supernatant is discarded, and the plates are washed five times with tap water and air dried. Sulforhodamine B (SRB) solution (100 μl) at 0.4% (w/v) in 1% acetic acid is added to each well, and plates are incubated for 10 minutes at room temperature. After staining, unbound dye is removed by washing five times with 1% acetic acid and the plates are air dried. Bound stain is subsequently solubilized with 10 mM trizma base, and the absorbance is read on an automated plate reader at a wavelength of 515 nm. For suspension cells, the methodology is the same except that the assay is terminated by fixing settled cells at the bottom of the wells by gently adding 50 μl of 80% TCA (final concentration, 16% TCA). Using the seven absorbance measurements [time zero, (Tz), control growth, (C), and test growth in the presence of drug at the five concentration levels (Ti)], the percentage growth is calculated at each of the drug concentrations levels. Percentage growth inhibition is calculated as: [(Ti−Tz)/(C−Tz)]×100 for concentrations for which Ti>/=Tz [(Ti−Tz)/Tz]×100 for concentrations for which Ti<Tz
# (§4) Three dose response parameters are calculated for each experimental agent. […] The drug concentration resulting in total growth inhibition (TGI) is calculated from Ti=Tz. […] Values are calculated for each of these three parameters if the level of activity is reached; however, if the effect is not reached or is exceeded, the value for that parameter is expressed as greater or less than the maximum or minimum concentration tested.
# (§5) The methods described were used to test compounds 70 and 71 on a panel of sixty cell lines under a screening service provided by the Developmental Therapeutics Program at the National Institutes of Health. Shown in FIG. 1C are 1, RPMI-8226 leukemia cells; 2; NCI-H322M non-small cell lung cancer cells; 3, HT29 colon cancer cells; 4, U251 CNS cancer cells; 5, SK-MEL-28 melanoma cancer cells; 6, SK-OV-3 ovarian cancer cells; 7, RXF 393 renal cancer cells; 8, PC-3 prostate cancer cells; 9, MDA-MB-231 breast cancer cells.
# NCI-H226 = assay: NCI DTP cell line screen (SRB), Non-Small Cell Lung Cancer; type: cell-based, human
# Description: as §1, §2, §3, §4, §5
# SNB-19 = assay: NCI DTP cell line screen (SRB), CNS Cancer; type: cell-based, human
# Description: as §1, §2, §3, §4, §5
# U251 = assay: NCI DTP cell line screen (SRB), CNS Cancer; type: cell-based, human
# Description: as §1, §2, §3, §4, §5
# 786-0 = assay: NCI DTP cell line screen (SRB), Renal Cancer; type: cell-based
# Description: as §1, §2, §3, §4, §5
# A498 = assay: NCI DTP cell line screen (SRB), Renal Cancer; type: cell-based
# Description: as §1, §2, §3, §4, §5
# SN12C = assay: NCI DTP cell line screen (SRB), Renal Cancer; type: cell-based
# Description: as §1, §2, §3, §4, §5
# TK-10 = assay: NCI DTP cell line screen (SRB), Renal Cancer; type: cell-based
# Description: as §1, §2, §3, §4, §5
# [1] = read-out: LC50 (the source's name)
smiles,measurement,setting,value
"NCC(=O)Nc1ccc(-n2nc(C(F)(F)F)cc2-c2ccc3c(ccc4ccccc43)c2)cc1 [Compound 70, 2-Amino-N-{4-[5-(2-phenanthrenyl)-3-(trifluoromethyl)-1H-pyrazol-1-yl]-phenyl}-acetamide]",direct inhibitory effect on immunoprecipitated Akt activity,immunoprecipitated Akt,no appreciable direct inhibition
same,Percent Growth,RPMI-8226; Log10 Concentration −4.0,−31%
same,Percent Growth,RPMI-8226; Log10 Concentration −5.0,−51%
same,Percent Growth,RPMI-8226; Log10 Concentration −6.0,42%
same,Percent Growth,RPMI-8226; Log10 Concentration −7.0,72%
same,Percent Growth,RPMI-8226; Log10 Concentration −8.0,85%
same,TGI,RPMI-8226,2.84E−06
same,Percent Growth,NCI-H226; Log10 Concentration −4.0,−48%
same,Percent Growth,NCI-H226; Log10 Concentration −5.0,−58%
same,Percent Growth,NCI-H226; Log10 Concentration −6.0,59%
same,Percent Growth,NCI-H226; Log10 Concentration −7.0,98%
same,Percent Growth,NCI-H226; Log10 Concentration −8.0,100%
same,TGI,NCI-H226; in M (unit assumed),3.21E−06
same,TGI,SNB-19,3.15E−06
same,Percent Growth,SNB-19; Log10 Concentration −4.0,−39%
same,Percent Growth,SNB-19; Log10 Concentration −5.0,−59%
same,Percent Growth,SNB-19; Log10 Concentration −6.0,59%
same,Percent Growth,SNB-19; Log10 Concentration −7.0,94%
same,Percent Growth,SNB-19; Log10 Concentration −8.0,87%
same,TGI,U251,2.64E−06
same,Percent Growth,U251; Log10 Concentration −4.0,−18%
same,Percent Growth,U251; Log10 Concentration −5.0,−63%
same,Percent Growth,U251; Log10 Concentration −6.0,46%
same,Percent Growth,U251; Log10 Concentration −7.0,82%
same,Percent Growth,U251; Log10 Concentration −8.0,100%
same,TGI,786-0,2.85E−06
same,Percent Growth,786-0; Log10 Concentration −4.0,−54%
same,Percent Growth,786-0; Log10 Concentration −5.0,−72%
same,Percent Growth,786-0; Log10 Concentration −6.0,60%
same,Percent Growth,786-0; Log10 Concentration −7.0,95%
same,Percent Growth,786-0; Log10 Concentration −8.0,104%
same,TGI,A498,5.75E−06
same,Percent Growth,A498; Log10 Concentration −4.0,−54%
same,Percent Growth,A498; Log10 Concentration −5.0,−30%
same,Percent Growth,A498; Log10 Concentration −6.0,95%
same,Percent Growth,A498; Log10 Concentration −7.0,126%
same,Percent Growth,A498; Log10 Concentration −8.0,98%
same,TGI,SN12C,3.51E−06
same,Percent Growth,SN12C; Log10 Concentration −4.0,−47%
same,Percent Growth,SN12C; Log10 Concentration −5.0,−65%
same,Percent Growth,SN12C; Log10 Concentration −6.0,78%
same,Percent Growth,SN12C; Log10 Concentration −7.0,94%
same,Percent Growth,SN12C; Log10 Concentration −8.0,96%
same,TGI,TK-10,3.10E−06
same,Percent Growth,TK-10; Log10 Concentration −4.0,−70%
same,Percent Growth,TK-10; Log10 Concentration −5.0,−80%
same,Percent Growth,TK-10; Log10 Concentration −6.0,77%
same,Percent Growth,TK-10; Log10 Concentration −7.0,100%
same,Percent Growth,TK-10; Log10 Concentration −8.0,102%
"N=C(N)Nc1ccc(-n2nc(C(F)(F)F)cc2-c2ccc3c(ccc4ccccc43)c2)cc1 [Compound 71, 4-[5-(2-Phenanthrenyl)-3-(trifluoromethyl)-1H-pyrazol-1-yl]-phenyl-guanidine]",direct inhibitory effect on immunoprecipitated Akt activity,immunoprecipitated Akt,no appreciable direct inhibition
same,GI50,RPMI-8226,1030 nM
same,Mean Optical Densities,RPMI-8226; Log10 Concentration −4.0,0.176
same,Percent Growth,RPMI-8226; Log10 Concentration −4.0,−47%
same,Mean Optical Densities,RPMI-8226; Log10 Concentration −5.0,0.016
same,Percent Growth,RPMI-8226; Log10 Concentration −5.0,−95%
same,Mean Optical Densities,RPMI-8226; Log10 Concentration −6.0,0.513
same,Percent Growth,RPMI-8226; Log10 Concentration −6.0,52%
same,Mean Optical Densities,RPMI-8226; Log10 Concentration −7.0,0.559
same,Percent Growth,RPMI-8226; Log10 Concentration −7.0,65%
same,Mean Optical Densities,RPMI-8226; Log10 Concentration −8.0,0.536
same,Percent Growth,RPMI-8226; Log10 Concentration −8.0,58%
same,TGI,RPMI-8226,2.25E−06
same,GI50,786-0,1490 nM
same,TGI,786-0,2.91E−06
same,Mean Optical Densities,786-0; Log10 Concentration −4.0,0.458
same,Percent Growth,786-0; Log10 Concentration −4.0,−30%
same,Mean Optical Densities,786-0; Log10 Concentration −5.0,0.046
same,Percent Growth,786-0; Log10 Concentration −5.0,−93%
same,Mean Optical Densities,786-0; Log10 Concentration −6.0,1.663
same,Percent Growth,786-0; Log10 Concentration −6.0,80%
same,Mean Optical Densities,786-0; Log10 Concentration −7.0,1.868
same,Percent Growth,786-0; Log10 Concentration −7.0,96%
same,Mean Optical Densities,786-0; Log10 Concentration −8.0,1.862
same,Percent Growth,786-0; Log10 Concentration −8.0,96%
same,GI50,A498,16500 nM
same,TGI,A498,4.35E−05
same,Mean Optical Densities,A498; Log10 Concentration −4.0,0.540
same,Percent Growth,A498; Log10 Concentration −4.0,−43%
same,Mean Optical Densities,A498; Log10 Concentration −5.0,1.903
same,Percent Growth,A498; Log10 Concentration −5.0,76%
same,Mean Optical Densities,A498; Log10 Concentration −6.0,1.869
same,Percent Growth,A498; Log10 Concentration −6.0,73%
same,Mean Optical Densities,A498; Log10 Concentration −7.0,2.087
same,Percent Growth,A498; Log10 Concentration −7.0,91%
same,Mean Optical Densities,A498; Log10 Concentration −8.0,2.413
same,Percent Growth,A498; Log10 Concentration −8.0,116%
same,CC50,A498; [1],> 100000 nM
same,GI50,SN12C,1570 nM
same,TGI,SN12C,2.91E−06
same,Mean Optical Densities,SN12C; Log10 Concentration −4.0,0.224
same,Percent Growth,SN12C; Log10 Concentration −4.0,−62%
same,Mean Optical Densities,SN12C; Log10 Concentration −5.0,−0.014
same,Percent Growth,SN12C; Log10 Concentration −5.0,−100%
same,Mean Optical Densities,SN12C; Log10 Concentration −6.0,1.045
same,Percent Growth,SN12C; Log10 Concentration −6.0,87%
same,Mean Optical Densities,SN12C; Log10 Concentration −7.0,0.998
same,Percent Growth,SN12C; Log10 Concentration −7.0,78%
same,Mean Optical Densities,SN12C; Log10 Concentration −8.0,1.050
same,Percent Growth,SN12C; Log10 Concentration −8.0,88%
same,GI50,TK-10,1320 nM
same,TGI,TK-10,2.59E−06
same,Mean Optical Densities,TK-10; Log10 Concentration −4.0,0.245
same,Percent Growth,TK-10; Log10 Concentration −4.0,−64%
same,Mean Optical Densities,TK-10; Log10 Concentration −5.0,−0.021
same,Percent Growth,TK-10; Log10 Concentration −5.0,−100%
same,Mean Optical Densities,TK-10; Log10 Concentration −6.0,0.998
same,Percent Growth,TK-10; Log10 Concentration −6.0,71%
same,Mean Optical Densities,TK-10; Log10 Concentration −7.0,1.087
same,Percent Growth,TK-10; Log10 Concentration −7.0,90%
same,Mean Optical Densities,TK-10; Log10 Concentration −8.0,1.032
same,Percent Growth,TK-10; Log10 Concentration −8.0,78%
same,CC50,TK-10; [1],5090 nM
